Consider 6 compounds from EP3720857B1, “2-OXO-5H-CHROMENO[4,3-B]PYRIDINES FOR USE IN THE TREATMENT OF HEPATITIS B” (Galapagos NV, priority 2017, dated 2019).

Bounds are passed on as bounds.

Assay [1] deals with hepatitis virus B (HBV) infection. Kind of assay: iCell hepatocytes assay, delayed assay (compounds added three days after HBV infection). Type of assay: cell-based. The following applies: for EC50: Hepatitis B virus, Hepatocyte, HBs ELISA. On the procedure: (§1) The principle of the iCell hepatocyte 2.0 96 well assay is to evaluate the inhibitory effect of a test compound on hepatitis virus B (HBV) infection. In this assays the HBV core antigen (HBcAg) and/or extracellular antigen (HBeAg) and/or surface antigen (HBsAg) are used as a marker for HBV infection. Nuclei count may be used as an indication for compound toxicity.
(§2) In the standard assay set-up HBV infection and compound addition are performed on the same day, in the delayed assay the compounds are added three days after HBV infection. iCell hepatocytes 2.0 are human hepatocytes derived from induced pluripotent stem cells (iPSc) purchased from Cellular Dynamics international (CDI, R1027).
(§3) At day 0, iCell hepatocytes 2.0 (CDI, R1027) are thawed and seeded in collagen I coated 96well plates at 112 000c/well (100µL) in plating medium (RPMI supplemented with B27 supplement, 20 ng/mL recombinant human oncostatin M (OSM), 25µg/mL gentamicin, 0.1µM Dexamethasone and iCell medium supplement provided by CDI). Plates are incubated at 37°C, 5% CO2 and daily refreshed with plating medium for the following four days.
(§4) On day 5 and 6, plates are refreshed with 100µL maintenance medium (RPMI supplemented with B27 supplement, 25µg/mL gentamicin, 0.1µM Dexamethasone, and iCell medium supplement provided by CDI) and incubated at 37°C, 5% CO2 until the following day.
On day 7 (day of infection), the maintenance medium is removed from the assay plates and cells are infected with 50 µL of HBV mix (HBV virus, 4% PEG, 0% or 2% DMSO in maintenance medium). The assay plates were incubated overnight at 37°C, 5% CO2.
At day 1 post infection (day8), 50µL of HBV mix is removed from the assay plates and refreshed with 100 µL of maintenance medium. The assay plates are incubated at 37°C, 5% CO2 for three days.
At day 4 post infection (day 11) and day 7 post infection (day14), the supernatant is removed and 100 µL of compound series diluted 1/500 in maintenance medium is added to the assay plates (8 point serial dilution using 1/3 dilution steps in 100% DMSO or 8 point serial dilution using ¼ dilution steps, normalized for 0.2% DMSO. The assay plates were incubated at 37°C, 5% CO2 for three days.
At day 10 post infection (day 17), 100µL of supernatant is harvested and frozen to -20°C. The cells are fixed with 50 µL of 3.7% formaldehyde and incubated for 30 min at room temperature. After fixation, cells are washed four times with phosphate buffer saline (PBS) with the plate washer (Select 405, microplate washer, Biotek) and subjected to HBc staining. harvested supernatant is used for HBe and/or HBs ELISA.
(§5) The assay plates are blocked with blocking buffer (2% FBS, 3% BSA, 0.2% TritonX100 in PBS) for 1 h at room temperature.
(§6) After blocking, the assay plates are tapped manually and incubated with 50 µL diluted primary antibody (1/700 Rabbit-anti-HBc Ag, Dako, B0586 or 1/350 Rabbit-anti-HBc Ag, Invitrogen, PA516368) in blocking buffer and incubated for 90 min at room temperature.
(§7) After 4 washes of PBST (1XPBS + 0.05% Tween) with the plate washer, the assay plates are incubated with 100 µL of secondary antibody (Donkey-anti-rabbit Alexa 488, Lifetechnologies, A21206) 1/500 diluted in blocking buffer and incubated for 60 min at room temperature in the dark, then washed 4 times with PBST on the plate washer and incubated with 100µL of DAPI (Sigma D9542, stock 5mg/mL) 1/10000 diluted in PBS for 15-30 min at room temperature in the dark.
Finally, the assay plates are read out on a InCell Analyzer 2200 (GE Healthcare). […]
After blocking, 30 µL of sample and HBe Ag standard (recombinant hepatitis B virus E antigen protein, 4mg/mL, Abcam, ab91273) are added to the plate. The HBe Ag standard is 1/3 diluted in blocking buffer starting from 1.25µg/mL. A vehicle control is also included. The plate is incubated for 30 min at room temperature.
After sample incubation, the plates are washed 4 times with PBST on a platewasher followed by 2 washed of PBS. […]

The test system is the same in assay [2]. Kind of assay: iCell hepatocytes assay, standard assay (HBc staining, HBe ELISA, HBs ELISA). The assay is classed as cell-based. The conditions noted are these: for EC50: Hepatitis B virus, Hepatocyte. On the procedure: as §1, §2, §3, §4
On day 7 (day of infection) the supernatant is removed from the assay plates and 25 µL of 1/250 diluted compound in maintenance medium and 25 µL of HBV mix (HBV virus, 8% PEG, 0% or 4% DMSO in maintenance medium) are added to the assay plates. Compounds series are either prepared manually as a 6 point serial dilution using 1/5 dilution steps in 100% DMSO or as an 8 point serial dilution using 1/3 dilution steps in 100% DMSO or as an 8 point serial dilution using ¼ dilution steps, normalized for 0.2% DMSO. The assay plates were incubated overnight at 37°C, 5% CO2.
On day 1 post infection (day 8) 50 µL of HBV/cpd mix is removed from the assay plates and refreshed with 100 µL of compound series diluted 1/500 in maintenance medium. The assay plates are incubated at 37°C, 5% CO2 and refreshed with compound series diluted 1/500 in maintenance medium every other day (at day 3 and day 5 post infection) or after three days of incubation (at day 4 post infection).
At day 7 post infection (day 14), 100µL of supernatant is harvested and frozen at -20°C. The cells were fixed with 50 µL of 3.7% formaldehyde and incubated for 30 min at room temperature. After fixation, cells are washed four times with phosphate buffer saline (PBS) with the plate washer (Select 405, microplate washer, Biotek) and subjected to HBc staining. The harvested supernatant is used for HBe and/or HBs ELISA.
as §5, §6, §7
Finally, the assay plates are read out on a InCell Analyzer 2200 (GE Healthcare).
A white lumitrac 600 384 well plate iss coated with 40µL of capture antibody (monoclonal Mouse-anti-HBe Ag, Fitzgerald, 10-H10) diluted 1/2000 in coating buffer (0.1M sodium carbonate pH 9.5) and incubated overnight at 4°C. […]

For orientation: EC50 means the concentration giving half of the maximal effect. Lower therefore signals an effect from little substance. With `COCCCOc1cc2c(cc1F)-c1c(cc(C(=O)O)c(=O)n1C1CC1)C(C(C)C)O2` (stereo not drawn) [Compound 1, 1-cyclopropyl-9-fluoro-5-isopropyl-8-(3-methoxypropoxy)-2-oxo-5H-chromeno[4,3-b]pyridine-3-carboxylic acid], in assay [1], the “Delayed assay HBs ELISA % inhibition” value is recorded as “++ (50-75%)” and the half-maximal effective concentration (EC50) fell in the range of 0.001 to 20 nM. Also, in assay [2], the “Standard assay HBs ELISA % inhibition” value is “++ (50-75%)” and the EC50 was 0.001 to 20 nM.
Regarding `COCCCOc1cc2c(cc1Cl)-c1c(cc(C(=O)O)c(=O)n1C1CC1)CO2` [Compound 6, 9-chloro-1-cyclopropyl-8-(3-methoxypropoxy) -2-oxo-5H-chromeno[4,3-b]pyridine-3-carboxylic acid], in assay [1], the “Delayed assay HBs ELISA % inhibition” value is recorded as “++ (50-75%)” and the EC50 lay within 22 to 50 nM. Further, in assay [2], the “Standard assay HBs ELISA % inhibition” value is “+++ (75-100%)” and the 50% effective concentration (EC50) was 0.001 to 20 nM.
`CCC1Oc2cc(OCCCOC)c(F)cc2-c2c1cc(C(=O)O)c(=O)n2C1CC1` (stereo not drawn) [Compound 16, 1-cyclopropyl-5-ethyl-9-fluoro-8-(3-methoxypropoxy) -2-oxo-5H-chromeno[4,3-b]pyridine-3-carboxylic acid]: in assay [1], the “Delayed assay HBs ELISA % inhibition” value is on record as “++ (50-75%)” and the EC50 is 22 to 50 nM. In assay [2], the “Standard assay HBs ELISA % inhibition” value is listed as “++ (50-75%)” and the concentration for a half-maximal effect (EC50) is 22 to 50 nM.
Regarding `COCCCOc1cc2c(cc1Cl)-c1c(cc(C(=O)O)c(=O)n1C1CC1)C(C(C)(C)COC)O2` (stereo not drawn) [Compound 19, 9-chloro-1-cyclopropyl-5-(2-methoxy-1,1-dimethyl-ethyl)-8-(3-methoxypropoxy) -2-oxo-5H-chromeno[4,3-b]pyridine-3-carboxylic acid], in assay [1], the “Delayed assay HBs ELISA % inhibition” value is “++ (50-75%)” and the concentration giving a half-maximal response (EC50) was in the range of 22 to 50 nM. In assay [2], the “Standard assay HBs ELISA % inhibition” value is recorded as “++ (50-75%)” and the EC50 was 22 to 50 nM.
In the case of `COCCCOc1cc2c(cc1F)-c1c(cc(C(=O)O)c(=O)n1C1CC1)[C@H](C(C)C)O2` [Compound 44, (5S)-1-cyclopropyl-9-fluoro-5-isopropyl-8-(3-methoxypropoxy)-2-oxo-5H-chromeno[4,3-b]pyridine-3-carboxylic acid], in assay [1], the “Delayed assay HBs ELISA % inhibition” value is “++ (50-75%)” and the EC50 was over 50 nM. In assay [2], the “Standard assay HBs ELISA % inhibition” value is “++ (50-75%)” and the 50% effective concentration (EC50) lay within 22 to 50 nM.
For `COCCCOc1cc2c(cc1Cl)-c1c(cc(C(=O)O)c(=O)n1C1CC1)[C@H](C1(C)COC1)O2` [Compound 46, (5R)-9-chloro-1-cyclopropyl-8-(3-methoxypropoxy)-5-(3-methyloxetan-3-yl)-2-oxo-5H-chromeno[4,3-b]pyridine-3-carboxylic acid], in assay [1], the “Delayed assay HBs ELISA % inhibition” value was “++ (50-75%)” and the concentration giving a half-maximal response (EC50) is 0.001 to 20 nM. In assay [2], the “Standard assay HBs ELISA % inhibition” value was “+++ (75-100%)” and the concentration for a half-maximal effect (EC50) fell in the range of 0.001 to 20 nM.
